Molecules are shown by their SMILES.

`CCOC(=O)C(=Cc1cc(N)cc(C=C(C(=O)OCC)C(=O)OCC)c1)C(=O)OCC` showed a melting point of 174 °C.
For the compound `Cc1cc(F)ccc1[N+](=O)[O-]`, the melting point turned out to be 20 °C.
`FC(F)(F)C(F)(F)C(F)(F)C(F)(F)C(F)(F)C(F)(F)C(F)(F)C(F)(F)C(F)(F)C(F)(F)CCI` registered a melting point of 82 to 83 °C.
For `COc1cccc2cc(C(=O)c3cc4ccccc4o3)oc12`, the melting point lay within 154 to 155 °C.
Consider `N[C@H](CCO)C(=O)O`, for which the melting point amounted to 205 °C.
`O=C(O)C(O)c1ccc(F)cc1F` (configuration not stated) gave a melting point of 123 °C.
Compound `CC(Cc1cc(=O)c2c3c(c4ccccc4c2o1)OC1CC(=O)OC31)O[Si](C)(C)C(C)(C)C` (configuration not stated) came in with a melting point of 188 °C.
Compound `S=C(Oc1ccccc1)Oc1ccccc1` showed a melting point of 106 °C.
The result for `Oc1ccc(F)c(F)c1F` reads 32 °C; that for `C/C(=N\NC(N)=O)C1CC2(C)CCC1C2(C)C` (configuration not stated), 236 °C; that for `O=Cc1cccc([N+](=O)[O-])c1O`, 110 °C.
In turn, `O=C1CCCN1c1ccccc1` had a melting point of 66 °C.
On to `C#CC1(O)CCC2(C)C(CCC3C4CCC(=O)C4(C)CCC32)C1` (configuration not stated), for which the melting point was in the range of 237 to 238 °C.
The result for `COC(=O)C1=C(C)NC(=O)NC1c1ccc(Cl)cc1` (configuration not stated) reads 172 °C; that for `N#C/C(=N\Nc1cccc(F)c1)c1nc2ccccc2s1`, 196 °C.
The result for `ClCCI` reads -15.6 °C; that for `Cc1c(Cl)c(Cl)c(Cl)c(Cl)c1Cl`, 225 °C.
The compound `COP(=O)(OC)C(O)C(Cl)(Cl)Cl` (configuration not stated) returned a melting point of 80 °C.
The result for `CCOC(=O)NC1C2CCC(C)(C1O)C2(C)C` (configuration not stated) reads 76 °C; that for `O=C(C=Cc1cccc([N+](=O)[O-])c1)c1ccc(F)cc1`, 166 to 167 °C.
The result for `FC(F)(F)c1cccc(Cl)n1` reads 33 to 35 °C.
Regarding `Cc1c(CN2CCOC(c3ccccc3)C2C)c(=O)n(-c2ccccc2)n1C` (configuration not stated), the melting point amounted to 149 °C.
Compound `FC(F)(F)C(Cl)(Cl)C(F)(F)Cl` yielded a melting point of -4.3 °C.
The result for `O=[N+]([O-])c1ccc(OCCBr)cc1` reads 64 °C.
As to `COC(=O)c1ccc(OC)c(C#N)c1`, the melting point fell in the range of 124 to 125 °C.
In turn, `N#Cc1ccsc1N` showed a melting point of 103 to 106 °C.
For the compound `Cc1cc([N+](=O)[O-])ccc1N=C=O`, the melting point turned out to be 83 °C.
Consider `CC(=O)NCc1ccccc1C(c1ccc(C)o1)c1ccc(C)o1`, for which the melting point was determined as 65 °C.
As for `CCC(=O)C1(c2cccc(O)c2)CCN(C)CC1`, the melting point came to 156 °C.
The result for `NC(=O)C(=O)NC(c1ccccc1)C1(c2ccccc2)OCCO1` (configuration not stated) reads 203 °C; that for `CC(C)CCCCCCCO`, 5 °C.
The compound `Cc1onc(-c2c(Cl)cccc2Cl)c1C(N)=O` showed a melting point of 166 to 168 °C.
The result for `CC(=O)Nc1c(Br)cc(Br)cc1C(=O)c1ccccc1` reads 156 °C; that for `Cc1nc2ccccc2n1CCc1n[nH]c(=S)o1`, 209 °C.
Compound `CN1CCN(Cc2ccccc2N)CC1` came in with a melting point of 87 to 88 °C.
In turn, `O=Cc1cc(F)ccc1Br` came in with a melting point of 54 °C.
For `c1cc(-c2cnc3ccccc3n2)cc(-c2cnc3ccccc3n2)c1`, the melting point lay in the range of 202 to 203 °C.
As for `Cn1nccc1-c1cccc(C(=O)O)c1`, the melting point is 138 to 140 °C.
With `COc1ccc(C(=O)C=Cc2ccc(-c3ccccc3OC)o2)cc1OC`, the melting point is 144 to 145 °C.
In the case of `CCN(CC)C(C)CN1c2ccccc2Sc2ccccc21` (configuration not stated), the melting point was 53 °C.
Turning to `CCCCCCCCCCCCCCOc1ccccc1NC(=O)c1cc(Oc2ccc([N+](=O)[O-])cc2CN(C(=O)Cl)C(C)C)c2ccccc2c1O`, the melting point is 109 to 116 °C.
The result for `c1ccc(CC2CCNCC2)cc1` reads 16.8 °C.

(Values after a melting point compilation (Tetko et al.).)
